Columns and labels:
SNI mice [1] = assay: Mechanical allodynia (Dynamic Plantar Aesthesiometer, paw withdrawal threshold) in spared nerve injury mice; assay type: in vivo; settings: for MECHANICAL WITHDRAWAL THRESHOLD: SNI mice; for overall efficacy, mechanical withdrawal: both of the doses tested (2.5 and 5 mg/kg); for ability to treat neuropathic pain compared with CBD: mechanical withdrawal data
Protocol: (§1) Peripheral neuropathic pain is produced by multiple etiological factors that initiate a number of diverse mechanisms at different sites and in different disease states. Spared nerve injury (SNI) consists of partial ligation and transaction of the sciatic nerve which evolves in neuropathic pain whose typical manifestations are represented by thermal hyperalgesia and tactile allodynia.
(§2) Chronic pain symptoms are measured through changes in thermoceptive responses (which is indicative of thermal hyperalgesia) using Plantar Test Apparatus (Ugo Basile, Varese, Italy) and in mechanical paw withdrawal threshold (which is indicative of mechanical allodynia) by a Dynamic Plantar Aesthesiometer (Ugo Basile, Varese, Italy). Nociceptive responses were measured before and after surgery in groups of mice differently treated (vehicle or drugs different combinations).
(§3) The cannabinoids tested were CBG, CBC, CBDV, and THCV. […] The cannabinoids were prepared from whole plant extracts of cannabis plants which had been purified. The cannabinoids were dissolved in ringer/0.5% dimethyl sulfoxide (DMSO), for intraperitoneal (i.p.) administration.
(§4) Male CD-1 mice (35-40 g) were housed, 3 per cage, under controlled illumination (12:12 h light:dark cycle; light on 06.00 h) and environmental conditions (room temperature 20-22° C., humidity 55-60%) for at least 1 week before the commencement of experiments. Mouse chow and tap water were available ad libitum. The experimental procedures were approved by the Ethic Committee of the Second University of Naples. Animal care was in compliance with the IASP and European Community (E.C. L358/1 18/12/86) guidelines on the use and protection of animals in experimental research. All efforts were made to minimize animal suffering and to reduce the number of animals used.
(§5) Behavioural testing was performed before surgery to establish a baseline for comparison with post-surgical values. Mononeuropathy was induced according to the method of Bourquin and Decosterd (2006).
(§6) Mice were anaesthetized with sodium pentobarbital (60 mg/kg i.p.). The right hindlimb was immobilized in a lateral position and slightly elevated. Incision was made at mid-thigh level using the femur as a landmark. The sciatic nerve was exposed at mid-thigh level distal to the trifurcation and freed of connective tissue; the three peripheral branches (sural, common peroneal, and tibial nerves) of the sciatic nerve were exposed without stretching nerve structures.
(§7) Both tibial and common peroneal nerves were ligated and transacted together. A micro-surgical forceps with curved tips was delicately placed below the tibial and common peroneal nerves to slide the thread (5.0 silk, Ethicon, Johnson, and Johnson Intl, Brussels, Belgium) around the nerves. A tight ligation of both nerves was performed. The sural nerve was carefully preserved by avoiding any nerve stretch or nerve contact with surgical tools. Muscle and skin were closed in two distinct layers with silk 5.0 sutures.
(§8) Intense, reproducible and long-lasting thermal hyperalgesia and mechanical allodynia-like behaviors are measurable in the non-injured sural nerve skin territory. The SNI model offers the advantage of a distinct anatomical distribution with an absence of co-mingling of injured and non-injured nerve fibers distal to the lesion such as the injured and non-injured nerves and territories can be readily identified and manipulated for further analysis (i.e. behavioral assessment).
(§9) The sham procedure consisted of the same surgery without ligation and transection of the nerves.
(§10) The groups of mice were divided as follows, each cannabinoid tested has its own group of mice:
(§11) The cannabinoids were dosed daily for 14 days. Doses for all cannabinoids tested were: 2.5 and 5.0 mg/Kg. Vehicle solution was 0.5% DMSO in ringer solution.
Mechanical allodynia was measured by using Dynamic Plantar Anesthesiometer (Ugo Basile, Varese, Italy). […]

SNI mice [2] = assay: Thermal hyperalgesia (Plantar Test Apparatus, paw withdrawal latency) in spared nerve injury mice; assay type: in vivo; settings: for dose-dependence of effect on thermal withdrawal latency: 2.5 vs 5 mg/kg; for ability to treat neuropathic pain compared with CBD: thermal withdrawal data
Protocol: as §1, §2, §3, §4, §5, §6, §7, §8, §9, §10, §11
Thermal hyperalgesia was evaluated by using a Plantar Test Apparatus (Ugo Basile, Varese, Italy). […]

[3] = SNI mice, 2.5 mg/kg i.p. daily, DAY 3
[4] = SNI mice, 2.5 mg/kg i.p. daily, DAY 7
[5] = SNI mice, 2.5 mg/kg i.p. daily, DAY 14
[6] = SNI mice, 5 mg/kg i.p. daily, DAY 3
[7] = SNI mice, 5 mg/kg i.p. daily, DAY 7
[8] = SNI mice, 5 mg/kg i.p. daily, DAY 14

## CCCc1cc(O)c2c(c1)OC(C)(C)[C@@H]1CCC(C)=C[C@@H]21 [THCV, tetrahydrocannabivarin]
SNI mice [1]; 2.5 mg/kg i.p. daily, DAY 3
  MECHANICAL WITHDRAWAL THRESHOLD: 3.0 g
SNI mice [1]; 2.5 mg/kg i.p. daily, DAY 7
  MECHANICAL WITHDRAWAL THRESHOLD: 6.2 g
SNI mice [1]; 2.5 mg/kg i.p. daily, DAY 14
  MECHANICAL WITHDRAWAL THRESHOLD: 7.5 g
SNI mice [1]; 5 mg/kg i.p. daily, DAY 3
  MECHANICAL WITHDRAWAL THRESHOLD: 3.2 g
SNI mice [1]; 5 mg/kg i.p. daily, DAY 7
  MECHANICAL WITHDRAWAL THRESHOLD: 8.5 g
SNI mice [1]; 5 mg/kg i.p. daily, DAY 14
  MECHANICAL WITHDRAWAL THRESHOLD: 9.8 g
SNI mice [1]
  overall efficacy, mechanical withdrawal: good efficacy
  ability to treat neuropathic pain compared with CBD: superior to CBD
SNI mice [2]; 2.5 mg/kg
  overall efficacy, thermal withdrawal: good efficacy
SNI mice [2]; 2.5 mg/kg, day 7 to day 14
  thermal withdrawal latency, course over time: large increase at the day 7 time point which then decreases after a further 7 days
SNI mice [2]; 5.0 mg/kg
  overall efficacy, thermal withdrawal: most effective
SNI mice [2]; 5.0 mg/kg, 14 days
  THERMAL WITHDRAWAL LATENCY: large increase
SNI mice [2]
  dose-dependence of effect on thermal withdrawal latency: do not appear to be dose-dependent
  ability to treat neuropathic pain compared with CBD: superior to CBD
SNI mice [2]; [3]
  THERMAL WITHDRAWAL LATENCY: 3.8 s
SNI mice [2]; [4]
  THERMAL WITHDRAWAL LATENCY: 9.8 s
SNI mice [2]; [5]
  THERMAL WITHDRAWAL LATENCY: 7.6 s
SNI mice [2]; [6]
  THERMAL WITHDRAWAL LATENCY: 3.9 s
SNI mice [2]; [7]
  THERMAL WITHDRAWAL LATENCY: 10.5 s
SNI mice [2]; [8]
  THERMAL WITHDRAWAL LATENCY: 11.9 s

## CCCCCc1cc(O)c2c(c1)OC(C)(CCC=C(C)C)C=C2 (centres unmarked) [CBC, cannabichromene]
SNI mice [1]; 5.0 mg/kg, day 7 to day 14
  mechanical withdrawal, course over time: large increase at day 7; however this latency decreased again at the 14 day time point
SNI mice [1]; 2.5 mg/kg i.p. daily, DAY 3
  MECHANICAL WITHDRAWAL THRESHOLD: 2.4 g
SNI mice [1]; 2.5 mg/kg i.p. daily, DAY 7
  MECHANICAL WITHDRAWAL THRESHOLD: 4.5 g
SNI mice [1]; 2.5 mg/kg i.p. daily, DAY 14
  MECHANICAL WITHDRAWAL THRESHOLD: 5.0 g
SNI mice [1]; 5 mg/kg i.p. daily, DAY 3
  MECHANICAL WITHDRAWAL THRESHOLD: 5.1 g
SNI mice [1]; 5 mg/kg i.p. daily, DAY 7
  MECHANICAL WITHDRAWAL THRESHOLD: 9.7 g
SNI mice [1]; 5 mg/kg i.p. daily, DAY 14
  MECHANICAL WITHDRAWAL THRESHOLD: 5.2 g
SNI mice [1]
  overall efficacy, mechanical withdrawal: relatively ineffective
SNI mice [2]; 2.5 mg/kg
  overall efficacy, thermal withdrawal: relatively ineffective
SNI mice [2]; 5.0 mg/kg, day 3
  THERMAL WITHDRAWAL LATENCY: able to increase the amount of time before the animal withdrew its paw
SNI mice [2]
  dose-dependence of effect on thermal withdrawal latency: do not appear to be dose-dependent
SNI mice [2]; [3]
  THERMAL WITHDRAWAL LATENCY: 3.7 s
SNI mice [2]; [4]
  THERMAL WITHDRAWAL LATENCY: 4.8 s
SNI mice [2]; [5]
  THERMAL WITHDRAWAL LATENCY: 5.2 s
SNI mice [2]; [6]
  THERMAL WITHDRAWAL LATENCY: 6.0 s
SNI mice [2]; [7]
  THERMAL WITHDRAWAL LATENCY: 7.0 s
SNI mice [2]; [8]
  THERMAL WITHDRAWAL LATENCY: 7.2 s

## CCCCCc1cc(O)c(C/C=C(\C)CCC=C(C)C)c(O)c1 [CBG, cannabigerol]
SNI mice [1]; 2.5 mg/kg i.p. daily, DAY 3
  MECHANICAL WITHDRAWAL THRESHOLD: 3.4 g
SNI mice [1]; 2.5 mg/kg i.p. daily, DAY 7
  MECHANICAL WITHDRAWAL THRESHOLD: 6.1 g
SNI mice [1]; 2.5 mg/kg i.p. daily, DAY 14
  MECHANICAL WITHDRAWAL THRESHOLD: 7.8 g
SNI mice [1]; 5 mg/kg i.p. daily, DAY 3
  MECHANICAL WITHDRAWAL THRESHOLD: 6.0 g
SNI mice [1]; 5 mg/kg i.p. daily, DAY 7
  MECHANICAL WITHDRAWAL THRESHOLD: 6.1 g
SNI mice [1]; 5 mg/kg i.p. daily, DAY 14
  MECHANICAL WITHDRAWAL THRESHOLD: 7.8 g
SNI mice [1]
  overall efficacy, mechanical withdrawal: good efficacy
  ability to treat neuropathic pain compared with CBD: superior to CBD
SNI mice [2]; 2.5 mg/kg
  overall efficacy, thermal withdrawal: highest thermal withdrawal latency of all the cannabinoids
SNI mice [2]; 2.5 mg/kg, day 3
  THERMAL WITHDRAWAL LATENCY: increase in the amount of thermal withdrawal latency
SNI mice [2]; 5.0 mg/kg, day 3
  THERMAL WITHDRAWAL LATENCY: able to increase the amount of time before the animal withdrew its paw
SNI mice [2]
  dose-dependence of effect on thermal withdrawal latency: do not appear to be dose-dependent
  ability to treat neuropathic pain compared with CBD: superior to CBD
SNI mice [2]; [3]
  THERMAL WITHDRAWAL LATENCY: 5.5 s
SNI mice [2]; [4]
  THERMAL WITHDRAWAL LATENCY: 5.4 s
SNI mice [2]; [5]
  THERMAL WITHDRAWAL LATENCY: 7.0 s
SNI mice [2]; [6]
  THERMAL WITHDRAWAL LATENCY: 7.8 s
SNI mice [2]; [7]
  THERMAL WITHDRAWAL LATENCY: 7.6 s
SNI mice [2]; [8]
  THERMAL WITHDRAWAL LATENCY: 7.5 s

Source: patent US9895342B2, “Cannabinoids for use in the treatment of neuropathic pain” (GW Pharma Limited, priority 2011, dated 2018)
